This is an account of results in paper PMC3871529, “At a Supra-Physiological Concentration, Human Sexual Hormones Act as Quorum-Sensing Inhibitors” (PLoS ONE, 2013).

Read-outs that look alike come from different tables or passages of the source. Some results are limits rather than exact numbers.

For one experiment, the target named is T1, LasR (Pseudomonas aeruginosa, UniProt P25084).
T1 construct: expressed in transfected cells; host or cells: Escherichia coli JLD271 carrying pAL105 (pSB401-derivative, lasR+ lasI::luxCDABE)
T1 sequence (P25084 whole entry): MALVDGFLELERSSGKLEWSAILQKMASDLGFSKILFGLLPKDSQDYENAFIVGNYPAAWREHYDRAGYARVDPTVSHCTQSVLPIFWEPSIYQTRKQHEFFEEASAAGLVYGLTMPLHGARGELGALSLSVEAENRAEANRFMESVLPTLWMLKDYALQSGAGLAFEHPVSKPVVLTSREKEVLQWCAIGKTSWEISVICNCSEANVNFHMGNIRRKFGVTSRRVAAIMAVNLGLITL
The experiment can be described thus: E. coli bioindicator expressing LasR (pAL105, lasI::luxCDABE luminescence). Format: cell-based. To be noted: OC12-HSL 100 µM; QSIs at 0.1 mg/ml, naringenin and naringin at 0.5 mg/ml. How it is done: (§1) We determined whether the AHL-binding transcriptional factors LasR and RhlR were impaired in their capacity to activate expression of the QS-regulated genes in the presence of various QSIs. This was achieved by using two E. coli bioindicator strains expressing either LasR or RhlR proteins and harboring an appropriate reporter lux operon for measuring their transcriptional activity in the presence of OC12-HSL at 100 µM and C4-HSL at 10 µM, respectively. Adding C4-HSL to the pAL101-bioindicator or OC12-HSL to the pAL105-bioindicator induced the expression of the reporter lux operon and the consequent production of luminescence. In contrast, only background levels of luminescence were detected in control strains harboring the plasmids pAL102 or pAL106, which lacks the rhlR or lasR gene, respectively.
(§2) Figure 7 QSIs modulated activity of the AHL-sensors in P. aeruginosa. Luminescence of the reporting operon lux, expressed in relative light units (RLU/OD600), was measured in E. coli bioindicator strains harboring the LasR (A) and RhlR (B) AHL-sensing systems of P. aeruginosa in the presence of […]. The QSIs estradiol, estrone, estriol and hordenine were added at 0.1 mg/ml, while naringenin and naringin, added at 0.5 mg/ml, were used as QSI-reference and non-QSI reference, respectively. Each test (n = 6) was compared with the DMSO-condition using Student's t test. Asterisks indicate statistically different data (p value of ≤0.01).
(§3) Escherichia coli JLD271 biosensor strains harboring LasR- and RhlR-based plasmids pAL105 and pAL101 and control plasmids pAL106 (LasR^-) and pAL102 (RhlR^−) (Table 1) were prepared according to Vandeputte et al.. Briefly, these strains were grown in LB medium supplemented with tetracycline (10 µg/ml) and chloramphenicol (25 µg/ml) for 24 h. Then 50-µl portions of the cultures were subcultured in 1 ml of LB medium (the starting OD600 ranged between 0.02 and 0.025 corresponding to 5.10^6 CFU) supplemented with 10 µl of DMSO (1% [vol/vol] final), 10 µl of naringenin or naringin dissolved in DMSO (2 mM, final concentration), or 10 µl of the molecule to be tested. To induce the expression of the lux operon, 0, 1, 10 or […] of C4-HSL was added to pAL101 and pAL102, while OC12-HSL was added to pAL105 and pAL106. After incubation for 2 h at 37°C with agitation (175 rpm), 200 µl of culture was transferred to 96-well OptiPlate-96 F plates from Perkin-Elmer, and the luminescence of each sample was measured by using a TopCount NXT device from Perkin-Elmer. The LasR(pAL106) and RhlR(pAL102) biosensors were used for background subtraction, and the OD600 values were measured to account for the differences in cell density. All experiments were performed in six replicates. The statistical significance of each test was evaluated by conducting Student's t tests using the GraphPad Prism software, and p values ≤0.05 were considered significant. Naringenin (4′,5,7-trihydroxyflavanone), naringin (4′,5,7-trihydroxyflavanone 7-rhamnoglucoside), the AHLs OC12-HSL and C4-HSL were purchased from Sigma-Aldrich and dissolved freshly in 100% DMSO before use. Tested QSIs were dissolved in 100% DMSO before use.

For experiment [1], the system named is QS-regulated Ti-plasmid transfer in A. tumefaciens. The experiment can be described thus: QS-regulated Ti-plasmid transfer (conjugation) assay. Format: cell-based, Agrobacterium tumefaciens. To be noted: QSI at 0.1 mg/ml, OC8-HSL 500 pM, 72 h at 24°C. How it is done:
Figure 4 In vitro Ti plasmid transfer frequency in Agrobacterium. The Ti plasmid transfer frequencies were measured in the presence of QSI (A) and the four 1248-diastereoisomeres (B) at 0.1 mg/ml. Histograms represent the cell density of transconjugants (CFU/ml), while black diamonds and squares, those of the donor and recipient strains, respectively. Measurements were performed in quadruplicate and the experiment was repeated twice. The cell densities of transconjugants in the presence of QSI were compared to that of the control in the presence of DMSO with a Mann and Whitney test (α = 0.05). Statistically different values are noted by asterisks.
In A. tumefaciens, the transfer of the Ti-plasmid from a donor cell to a recipient one is controlled by QS. QSI were evaluated for their capacity to reduce plasmid transfer frequency in Agrobacterium. In the plasmid transfer assay, two modified Agrobacterium strains were used: a Ti-plasmid donor, which requires exogenous AHL to transfer a kanamycin-resistant (Km^r) Ti-plasmid, and a rifampicin-resistant (Rif^r) recipient strain, which is free of Ti-plasmid. Overnight cultures of the donor and recipient strains were mixed with 500 pM of oxo-octanoylhomoserine lactone (OC8-HSL) and 0.1 mg/ml of QSI in LBm medium. Each combination was repeated 4 times in microwell plates.

The subject of experiment [2] is Agrobacterium biosensor cells. Description: Minimal inhibitory concentration (MIC). The conditions noted are these: 10^5 CFU/ml, 36 h at 30°C. Format: cell-based, Agrobacterium tumefaciens. On the procedure: Aside from the effect of QSI on QS regulation, the toxicity of these compounds was tested on bacterial cells by measuring two parameters: the minimal inhibitory concentration (MIC) and minimal bactericidal concentration (MBC). MIC, which is the lowest concentration of QSI (µg/ml) inhibiting any visible culture after 36 h of incubation at 30°C, was estimated by culturing 10^5 CFU/ml of the Agrobacterium biosensor cells in the presence of different concentrations of the QSI. MBC, which is the lowest concentration of QSI (µg/ml) that results in a 99.9% reduction of the initial bacterial population (10^5 CFU/ml) after 36 h of incubation at 30°C in the presence of different concentrations of QSI, was estimated by plating 100 µL of the Agrobacterium cultures on agar LBm plates. After an incubation of 48 h at 30°C, CFU were counted and the MBC values were calculated.

Another experiment addresses T2, RhlR (Pseudomonas aeruginosa, UniProt P54292).
T2 construct: expressed in transfected cells; host or cells: Escherichia coli JLD271 carrying pAL101 (pSB401-derivative, rhlR+ rhlI::luxCDABE)
Description: E. coli bioindicator expressing RhlR (pAL101, rhlI::luxCDABE luminescence). The format is cell-based. To be noted: C4-HSL 10 µM; QSIs at 0.1 mg/ml, naringenin and naringin at 0.5 mg/ml. How it is done: as §1, §2, §3

T2 sequence (P54292 whole entry): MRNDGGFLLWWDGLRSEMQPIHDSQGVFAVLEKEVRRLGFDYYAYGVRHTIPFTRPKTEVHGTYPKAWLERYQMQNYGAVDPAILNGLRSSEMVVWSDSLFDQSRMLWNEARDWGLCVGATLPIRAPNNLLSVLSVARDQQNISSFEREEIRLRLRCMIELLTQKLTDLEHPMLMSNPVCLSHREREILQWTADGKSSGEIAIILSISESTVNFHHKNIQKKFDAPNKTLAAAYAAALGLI

`CN(C)CCc1ccc(O)cc1` [Compound 3499, hordenine]: on LasR, the “effect on LasR functionality (lux luminescence)” value (“effect on LasR functionality” for short) was “significant impact”. The “effect on Ti plasmid transfer frequency (words)” value (shortened to “effect … (words)”) in experiment [1] is listed as “significantly reduce the plasmid transfer frequency by one order of magnitude”; in experiment [1] (listed as hordenine) it was “decreased the frequency”. Moreover, the MIC in experiment [2] (Agrobacterium, read-out: MIC) was > 100 µg/mL. Besides, the “effect on RhlR functionality (lux luminescence)” value (“effect on RhlR functionality” below) on RhlR was “significant impact”.

For the compound “3-Hydroxy-13-methyl-6,7,8,9,11,12,13,14,15,17-decahydro-cyclopenta[a] phenanthren-16-one [Compound 729, reference compound]”, at LasR, the “effect on LasR functionality” value is recorded as “significant impact”. The “effect … (words)” value in experiment [1] is recorded as “significantly reduce the plasmid transfer frequency by one order of magnitude”; in experiment [1] (listed as estrone), “decreased the frequency”. The MIC in experiment [2] was >100 µg/mL. For the same compound, the “effect on RhlR functionality” value on RhlR is listed as “significant impact”.

`C[C@]12CC[C@@H]3c4ccc(O)cc4CC[C@H]3[C@@H]1C[C@@H](O)[C@@H]2O` [Estriol, estriol]: the “effect on LasR functionality” value at LasR is recorded as “significant impact”. For the same compound, the “effect … (words)” value in experiment [1] was “significantly reduce the plasmid transfer frequency by one order of magnitude”. Also, the MIC in experiment [2] (Agrobacterium, read-out: MIC) was > 100 µg/mL. Further, the “effect on RhlR functionality” value at RhlR is “significant impact”.

A word on the MIC: it is the smallest concentration in the dilution series that meets the test's criterion for growth inhibition.
